From patent US4206215A, “Antimicrobial bis-[4-(substituted-amino)-1-pyridinium]alkanes” (Sterling Drug Inc., priority 1977, dated 1980)
Read-outs that look alike come from different tables or passages of the source.

Assays:
[1] = system: E. coli Vogel; assay: In vitro antibacterial activity, MIC (modified Autotiter method); format: cell-based, Escherichia coli; details: 18-20 hours at 37° C.; for MIC: Escherichia coli, 20 h, read-out: MIC E. coli Vogel
Procedure, shortened: (§1)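 Double-strength inoculated semisynthetic broth containing glucose was dispensed onto compound dilutions. These dilutions, twofold each, were prepared in sterile water by the Autotiter from a 1,000 mcg./ml. solution, covering final levels of 500 to 0.06 mcg./ml.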

[2] = system: E. coli 100/B22; assay: as above; format: cell-based, Escherichia coli; details: 18-20 hours at 37° C.; for MIC: Escherichia coli, 100/B22, 20 h, read-out: MIC E. coli 100/B22
Procedure, shortened: as §1

[3] = system: E. coli AB1932-1; assay: as above; format: cell-based, Escherichia coli; details: 18-20 hours at 37° C.; for MIC: Escherichia coli, AB19321, 20 h, read-out: MIC E. coli AB1932-1
Procedure, shortened: as §1

[4] = system: C. albicans Wisc.; assay: In vitro antifungal activity, MIC (modified Autotiter method); format: cell-based, Candida albicans; details: 18-20 hours at 37° C.; for MIC: Candida albicans, 20 h, read-out: MIC C. albicans Wisc.
Procedure, shortened: as §1

[5] = system: C. albicans 10231; assay: as above; format: cell-based, Candida albicans; details: 18-20 hours at 37° C.; for MIC: Candida albicans, 10231, 20 h, read-out: MIC C. albicans 10231
Procedure, shortened: as §1

[6] = system: E. Coli ATCC 8739; assay: Effect of serum on bacteriostatic activity (serial tube dilution test); format: cell-based, Escherichia coli; details: for Fold Increase in MIC E. Coli ATCC 8739: 40% vs 0% horse serum; for MIC: Escherichia coli, ATCC8739
Method: (§2) Antibacterial effectiveness in the presence of serum was determined for representative examples by the standard serial tube dilution test wherein paired comparisons of minimum inhibitory concentrations (MIC) were determined in the absence and in the presence of heat inactivated (30 min. at 56° C.) horse serum (40%) in the test medium. The results are expressed as the fold increase in MIC (mcg./ml.) versus Staphyloccocus aureus and Escherichia coli caused by the presence of serum and are presented in Table B hereinbelow.

[7] = system: S. Aureus ATCC 6538; assay: as above; format: cell-based, Staphyloccocus aureus; details: for Fold Increase in MIC S. Aureus ATCC 6538: 40% vs 0% horse serum; for MIC: Staphylococcus aureus, ATCC6538
Method: as §2

[8] = system: S. pyogen. C203; assay: In vitro antibacterial activity, MIC (modified Autotiter method); format: cell-based, Streptococcus pyogenes; details: 18-20 hours at 37° C.; for MIC: Streptococcus pyogenes, 20 h, read-out: MIC S. pyogen. C203
Procedure, shortened: as §1

[9] = system: S. Aureus Smith; assay: as above; format: cell-based, Staphylococcus aureus; details: 18-20 hours at 37° C.; for MIC: Staphylococcus aureus, 20 h, read-out: MIC S. Aureus Smith
Procedure, shortened: as §1

[10] = system: A. niger 16404; assay: In vitro antifungal activity, MIC (modified Autotiter method); format: cell-based, Aspergillus niger; details: 18-20 hours at 37° C.; for MIC: Aspergillus niger, 16404, 20 h, read-out: MIC A. niger 16404
Procedure, shortened: as §1

[11] = system: young adult male Swiss-Webster strain albino mice; assay: Acute oral toxicity (ALD50); format: in vivo; details: for Mortality 7 Days / Mortality 24 Hrs: suspension in 1% G.T.
Method: The acute oral toxicity (ALD50) of several representative examples was determined as follows: Groups of 3 young adult male Swiss-Webster strain albino mice were fasted approximately 4 hours before medication and then medicated once orally by stomach tube.

[12] = system: Ps. aerug. MGH-2; assay: In vitro antibacterial activity, MIC (modified Autotiter method); format: cell-based, Pseudomonas aeruginosa; details: 18-20 hours at 37° C.; for MIC: Pseudomonas aeruginosa, 20 h, read-out: MIC Ps. aerug. MGH-2
Procedure, shortened: as §1

[13] = system: Herpes simplex type 2 virus; assay: Virucidal activity in vitro (plaque inhibition test); format: cell-based; details: 2 mg. of test compound on growth medium
Method: Virucidal activity of representative examples against Herpes simplex type 2 virus was determined in vitro employing a procedure similar to the plaque inhibition test for detection of specific inhibitors of DNA-containing viruses published by E. C. Herrmann, Jr., Proc. Soc. Exp. Biol. Med. 107, 142 (1961) wherein 2 mg. of the test compound was placed on the surface of the growth medium.

[14] = system: K. pneum. 39645; assay: In vitro antibacterial activity, MIC (modified Autotiter method); format: cell-based, Klebsiella pneumoniae; details: 18-20 hours at 37° C.; for MIC: Klebsiella pneumoniae, 20 h, read-out: MIC K. pneum. 39645
Procedure, shortened: as §1

[15] = system: T. menta. 9129; assay: In vitro antifungal activity, MIC (modified Autotiter method); format: cell-based, Trichophyton mentagrophytes; details: 18-20 hours at 37° C.; for MIC: Trichophyton mentagrophytes, 20 h, read-out: MIC T. menta. 9129
Procedure, shortened: as §1

[16] = system: P. mirab. MGH-1; assay: In vitro antibacterial activity, MIC (modified Autotiter method); format: cell-based, Proteus mirabilis; details: 18-20 hours at 37° C.; for MIC: Proteus mirabilis, 20 h, read-out: MIC P. mirab. MGH-1
Procedure, shortened: as §1

[17] = 40% heat inactivated horse serum, read-out: MIC E. Coli ATCC 8739 40% Serum
[18] = read-out: MIC E. Coli ATCC 8739 0% Serum
[19] = 40% heat inactivated horse serum, read-out: MIC S. Aureus ATCC 6538 40% Serum
[20] = read-out: MIC S. Aureus ATCC 6538 0% Serum

Row | SMILES | Fold Increase in MIC E. Coli ATCC 8739 [6] [fold] | MIC [6, 17] [µg/mL] | MIC [6, 18] [µg/mL] | Fold Increase in MIC S. Aureus ATCC 6538 [7] [fold] | MIC [7, 19] [µg/mL] | MIC [7, 20] [µg/mL] | MIC S. pyogen. C203 [8] [µg/mL] | MIC A. niger 16404 [10] [µg/mL] | MIC Ps. aerug. MGH-2 [12] [µg/mL] | Virucidal activity against Herpes simplex type 2 virus [13] | MIC P. mirab. MGH-1 [16] [µg/mL] | MIC [1] [µg/mL] | MIC [2] [µg/mL] | MIC [3] [µg/mL] | MIC [4] [µg/mL] | MIC [5] [µg/mL] | MIC [8] [µg/mL] | MIC [9] [µg/mL] | MIC [14] [µg/mL] | MIC [15] [µg/mL] | other results
1 | CCCCCCCNc1cc[n+](CCCCCCCCCCCCCC[n+]2ccc(NCCCCCCC)cc2)cc1 [Example 1D, 1,14-bis-[4-(heptylamino)-1-pyridinium]-tetradecane dibromide] | 16 | 25 | 1.56 | 16 | 3.12 | 0.195 | 1.95 | 3.0 | 3.0 | active | 1.54 |  |  |  |  |  |  |  |  |  | MIC E. coli Vogel [1]: 1.54 µg/mL; MIC E. coli 100/B22 [2]: 0.77 µg/mL; MIC E. coli AB1932-1 [3]: 3.0 µg/mL; MIC C. albicans Wisc. [4]: 1.54 µg/mL; MIC C. albicans 10231 [5]: 1.54 µg/mL; MIC S. Aureus Smith [9]: 0.77 µg/mL; Mortality 7 Days ([11]; 125 mg/kg oral): 0/3; Mortality 24 Hrs ([11]; 125 mg/kg oral): 0/3; Mortality 7 Days ([11]; 250 mg/kg oral): 0/3; Mortality 24 Hrs ([11]; 250 mg/kg oral): 0/3; Mortality 7 Days ([11]; 500 mg/kg oral): 1/3; Mortality 24 Hrs ([11]; 500 mg/kg oral): 1/3; Mortality 7 Days ([11]; 1000 mg/kg oral): 2/3; Mortality 24 Hrs ([11]; 1000 mg/kg oral): 2/3; 7-Day ALD50 ([11]; oral, suspension in 1% gum tragacanth, 10080 min): 750 mg/kg; MIC K. pneum. 39645 [14]: 0.77 µg/mL; MIC T. menta. 9129 [15]: 0.77 µg/mL
2 | CCCCCCNc1cc[n+](CCCCCCCCCCCC[n+]2ccc(NCCCCCC)cc2)cc1 [Example 7, 1,12-bis-[4-(hexylamino)-1-pyridinium]dodecane dibromide] | 32 | 12.5 | 0.39 | 16 | 1.56 | 0.1 | 1.0 | 3.0 | 23.8 | active | 6.0 |  |  |  |  |  |  |  |  |  | MIC E. coli Vogel [1]: 0.37 µg/mL; MIC E. coli 100/B22 [2]: 0.37 µg/mL; MIC E. coli AB1932-1 [3]: 0.37 µg/mL; MIC C. albicans Wisc. [4]: 0.74 µg/mL; MIC C. albicans 10231 [5]: 0.74 µg/mL; MIC S. Aureus Smith [9]: 0.15 µg/mL; MIC K. pneum. 39645 [14]: 1.5 µg/mL; MIC T. menta. 9129 [15]: 0.37 µg/mL
3 | CCCCCCNc1cc[n+](CCCCCCCCCC[n+]2ccc(NCCCCCC)cc2)cc1 [Example 33, 1,10-bis-[4-(hexylamino)-1-pyridinium]decane dibromide] | 16 | 3.9 | 0.25 | 16 | 1.95 | 0.125 |  |  |  | active |  | 1.95 | 1.95 | 0.98 | 3.9 | 1.95 | 0.49 | 0.195 | 3.9 | 1.95 | MIC [10]: 3.9 µg/mL; MIC [12]: 31.3 µg/mL; MIC [16]: 31.3 µg/mL
4 | CCCCCCCCNc1cc[n+](CCCCCC[n+]2ccc(NCCCCCCCC)cc2)cc1 [Example 13, 1,6-bis-[4-(octylamino)-1-pyridinium]hexane dibromide] | 32 | 31.2 | 1 | 128 | 31.2 | 0.25 |  | 3.9 |  | active | 31.3 | 1.95 | 1.95 | 1 | 1.95 | 1.95 | 0.5 | 0.5 | 3.9 | 0.5 | MIC [12]: 31.3 µg/mL
5 | Clc1ccc(Nc2cc[n+](CCCCCCCCCC[n+]3ccc(Nc4ccc(Cl)cc4)cc3)cc2)cc1 [Example 79B, 1,10-bis-[4-(p-chlorophenylamino)-1-pyridinium]decane dimethanesulfonate] | 32 | 15.6 | 0.5 | 32 | 7.8 | 0.25 |  |  |  | inactive |  | 1.6 | 1.6 | 0.8 | 6.25 | 3.13 | 0.4 | 0.4 | 3.1 | 6.25 | MIC [10]: 25 µg/mL; MIC [12]: 62.5 µg/mL; MIC [16]: > 125 µg/mL
6 | CCCCCCCNc1cc[n+](CCCCCCCC[n+]2ccc(NCCCCCCC)cc2)cc1 [Example 22, 1,8-bis-[4-(heptylamino)-1-pyridinium]-octanedibromide] | 8 | 3.9 | 0.5 | 16 | 3.9 | 0.25 | 0.49 |  | 313 | active |  | 1.95 | 0.98 | 0.98 | 1.95 | 0.98 |  | 0.39 | 1.95 | 1.95 | MIC [10]: 15.6 µg/mL; MIC [16]: 62.5 µg/mL
